Laboratory results as given in patent US8148391B2 (Cephalon, Inc., priority 2006, dated 2012).

Experiments:
[1] = target: T1, c-Met (cytoplasmic domain) (Homo sapiens, UniProt P08581); assay: c-Met Kinase Assay (same methods as for ALK, with modifications); type: biochemical; conditions: c-Met kinase inhibition, 1 μM ATP (Km level); read-out: cMet Activity
T1 construct: 10 ng/mL c-Met (cytoplasmic domain, Invitrogen Corporation #PV3143); purchased Invitrogen Corporation PV3143
Outline: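 Steps: coat wells with PLC-γ (10 μg/mL, Tris-buffered saline); add 10 ng/mL c-Met cytoplasmic domain to initiate; incubate 15 min, 37° C; detect phosphoproduct via Eu-N1 PT66 antibody.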

[2] = target: T2, baculovirus-expressed ALK (Homo sapiens, UniProt Q9UM73); assay: ALK Kinase Assay (ELISA-type, time-resolved fluorescence); type: biochemical; conditions: ALK kinase inhibition, 1 μM ATP (Km level); read-out: ALK Activity
T2 construct: host or cells: baculovirus expression system
Outline: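 Wells were coated with phospholipase C-γ at 10 μg/mL in Tris-buffered saline. Adding 30 ng/ml enzyme started the reaction, which ran at 37° C for 15 minutes before Eu-N1 PT66 antibody detection. Percent inhibition versus log10 concentration gave IC50 by variable-slope fit.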

T2 sequence (Q9UM73 19-1620): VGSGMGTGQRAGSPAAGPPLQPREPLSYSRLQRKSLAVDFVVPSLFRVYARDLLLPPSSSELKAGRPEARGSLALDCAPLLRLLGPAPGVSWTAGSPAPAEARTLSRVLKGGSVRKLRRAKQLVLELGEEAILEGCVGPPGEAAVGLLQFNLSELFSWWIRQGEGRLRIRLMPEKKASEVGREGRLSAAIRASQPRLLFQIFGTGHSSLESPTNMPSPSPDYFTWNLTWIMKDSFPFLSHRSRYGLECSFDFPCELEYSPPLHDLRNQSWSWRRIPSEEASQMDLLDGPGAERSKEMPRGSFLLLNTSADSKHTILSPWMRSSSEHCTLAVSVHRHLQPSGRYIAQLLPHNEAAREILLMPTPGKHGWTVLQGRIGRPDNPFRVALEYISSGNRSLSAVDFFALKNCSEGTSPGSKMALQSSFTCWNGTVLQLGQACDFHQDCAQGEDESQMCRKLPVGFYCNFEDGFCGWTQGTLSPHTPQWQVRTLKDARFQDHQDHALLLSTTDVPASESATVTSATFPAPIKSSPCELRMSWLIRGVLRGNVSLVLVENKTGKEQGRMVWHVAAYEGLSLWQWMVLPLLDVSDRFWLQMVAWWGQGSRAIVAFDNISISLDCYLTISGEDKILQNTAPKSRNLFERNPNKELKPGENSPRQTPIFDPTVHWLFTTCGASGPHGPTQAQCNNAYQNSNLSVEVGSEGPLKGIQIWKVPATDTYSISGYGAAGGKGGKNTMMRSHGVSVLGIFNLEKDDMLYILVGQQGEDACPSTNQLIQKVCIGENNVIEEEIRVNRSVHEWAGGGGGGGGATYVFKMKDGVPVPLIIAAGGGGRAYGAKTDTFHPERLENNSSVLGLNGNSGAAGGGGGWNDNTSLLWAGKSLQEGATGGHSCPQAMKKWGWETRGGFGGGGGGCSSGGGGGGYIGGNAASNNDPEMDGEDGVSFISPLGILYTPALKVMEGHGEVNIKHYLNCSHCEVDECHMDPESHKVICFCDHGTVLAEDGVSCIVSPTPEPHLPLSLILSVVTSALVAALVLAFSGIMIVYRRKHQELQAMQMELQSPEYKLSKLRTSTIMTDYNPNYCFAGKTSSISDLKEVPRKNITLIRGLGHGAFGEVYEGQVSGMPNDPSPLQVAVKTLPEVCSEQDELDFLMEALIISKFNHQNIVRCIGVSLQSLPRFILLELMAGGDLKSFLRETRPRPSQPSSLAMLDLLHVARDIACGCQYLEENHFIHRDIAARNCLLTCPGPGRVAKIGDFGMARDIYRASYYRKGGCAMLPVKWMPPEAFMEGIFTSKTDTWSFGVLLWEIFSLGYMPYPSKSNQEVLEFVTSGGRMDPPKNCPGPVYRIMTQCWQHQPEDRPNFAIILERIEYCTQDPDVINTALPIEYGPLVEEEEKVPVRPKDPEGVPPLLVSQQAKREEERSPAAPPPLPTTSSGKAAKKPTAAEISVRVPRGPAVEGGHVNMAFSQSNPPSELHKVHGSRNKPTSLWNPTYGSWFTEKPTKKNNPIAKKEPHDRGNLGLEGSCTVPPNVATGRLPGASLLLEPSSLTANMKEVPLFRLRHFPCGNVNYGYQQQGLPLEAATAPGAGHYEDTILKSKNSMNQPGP
T1 sequence (P08581 956-1390 limits assumed): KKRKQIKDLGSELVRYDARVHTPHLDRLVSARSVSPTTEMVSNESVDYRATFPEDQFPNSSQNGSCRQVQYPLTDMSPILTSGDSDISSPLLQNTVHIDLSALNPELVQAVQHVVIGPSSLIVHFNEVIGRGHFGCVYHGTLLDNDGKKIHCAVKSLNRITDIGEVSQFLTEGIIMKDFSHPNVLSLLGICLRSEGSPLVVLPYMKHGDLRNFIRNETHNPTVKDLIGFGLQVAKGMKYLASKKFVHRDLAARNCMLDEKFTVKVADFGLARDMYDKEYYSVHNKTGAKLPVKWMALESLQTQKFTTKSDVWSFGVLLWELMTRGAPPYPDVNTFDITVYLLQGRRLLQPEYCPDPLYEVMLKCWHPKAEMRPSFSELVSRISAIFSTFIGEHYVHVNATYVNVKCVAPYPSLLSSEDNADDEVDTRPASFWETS

| SMILES | IC50 [1] [nM] | IC50 [2] [nM] |
| --- | --- | --- |
| CN1CCNCc2cc(Nc3ncc(Cl)c(N[C@@H]4CCCC[C@H]4NS(C)(=O)=O)n3)ccc21 [Example 422, N-{(1R,2R)-2-[5-Chloro-2-(1-methyl-2,3,4,5-tetrahydro-1H-benzo[e][1,4]diazepin-7-ylamino)-pyrimidin-4-ylamino]-cyclohexyl}-methanesulfonamide] | 1000 to 10000 | < 100 |
| CCN1CCN(CC)c2cc(Nc3ncc(Cl)c(Nc4ccccc4NS(C)(=O)=O)n3)ccc2C1=O [Example 423, N-{2-[5-Chloro-2-(1,4-diethyl-5-oxo-2,3,4,5-tetrahydro-1H-benzo[e][1,4]diazepin-8-ylamino)-pyrimidin-4-ylamino]-phenyl}-methanesulfonamide] | 100 to 1000 | < 100 |
| CCN1CCN(CC)c2cc(Nc3ncc(Cl)c(N[C@@H]4CCCC[C@H]4NS(C)(=O)=O)n3)ccc2C1=O [Example 424, N-{(1R,2R)-2-[5-Chloro-2-(1,4-diethyl-5-oxo-2,3,4,5-tetrahydro-1H-benzo[e][1,4]diazepin-8-ylamino)-pyrimidin-4-ylamino]-cyclohexyl}-methanesulfonamide] | 1000 to 10000 | < 100 |
| CCN1CCN(CC)c2cc(Nc3ncc(Cl)c(Nc4ccccc4NS(C)(=O)=O)n3)ccc2C1 [Example 425, N-{2-[5-Chloro-2-(1,4-diethyl-2,3,4,5-tetrahydro-1H-benzo[e][1,4]diazepin-8-ylamino)-pyrimidin-4-ylamino]-phenyl}-methanesulfonamide] | 100 to 1000 | < 100 |
| CCN1CCN(CC)c2cc(Nc3ncc(Cl)c(N[C@@H]4CCCC[C@H]4NS(C)(=O)=O)n3)ccc2C1 [Example 426, N-{(1R,2R)-2-[5-Chloro-2-(1,4-diethyl-2,3,4,5-tetrahydro-1H-benzo[e][1,4]diazepin-8-ylamino)-pyrimidin-4-ylamino]-cyclohexyl}-methanesulfonamide] | 100 to 1000 | < 100 |
| CCN1CCN(CC)c2cc(Nc3ncc(Cl)c(N[C@@H]4CCCC[C@H]4NS(C)(=O)=O)n3)c(Cl)cc2C1 [Example 427, N-{(1R,2R)-2-[5-Chloro-2-(7-chloro-1,4-diethyl-2,3,4,5-tetrahydro-1H-benzo[e][1,4]diazepin-8-ylamino)-pyrimidin-4-ylamino]-cyclohexyl}-methanesulfonamide] | > 10000 | < 100 |
| CNC(=O)c1ccccc1Nc1nc(Nc2ccc3c(c2)C(=O)NCCN3C)ncc1Cl [Example 428, 2-[5-Chloro-2-(1-methyl-5-oxo-2,3,4,5-tetrahydro-1H-benzo[e][1,4]diazepin-7-ylamino)-pyrimidin-4-ylamino]-N-methylbenzamide] | < 100 | < 100 |
| COCCN1CCN(C)c2ccc(Nc3ncc(Cl)c(Nc4ccccc4NS(C)(=O)=O)n3)cc2C1 [Example 429, N-(2-{5-Chloro-2-[4-(2-methoxy-ethyl)-1-methyl-2,3,4,5-tetrahydro-1H-benzo[e][1,4]diazepin-7-ylamino]-pyrimidin-4-ylamino}-phenyl)-methanesulfonamide] | 100 to 1000 | < 100 |
| COCCN1CCN(C)c2ccc(Nc3ncc(Cl)c(N[C@@H]4CCCC[C@H]4NS(C)(=O)=O)n3)cc2C1 [Example 430, N-((1R,2R)-2-{5-Chloro-2-[4-(2-methoxy-ethyl)-1-methyl-2,3,4,5-tetrahydro-1H-benzo[e][1,4]diazepin-7-ylamino]-pyrimidin-4-ylamino}-cyclohexyl)-methanesulfonamide] | 1000 to 10000 | < 100 |
| CCN1CCN(CC)c2cc(Nc3ncc(Cl)c(Nc4ccccc4NS(C)(=O)=O)n3)c(Cl)cc2C1 [Example 431, N-{2-[5-Chloro-2-(7-chloro-1,4-diethyl-2,3,4,5-tetrahydro-1H-benzo[e][1,4]diazepin-8-ylamino)-pyrimidin-4-ylamino]-phenyl}-methanesulfonamide] | 1000 to 10000 | < 100 |
| CNC(=O)c1ccccc1Nc1nc(Nc2ccc3c(c2)CN(CCOC)CCN3C)ncc1Cl [Example 432, 2-{5-Chloro-2-[4-(2-methoxy-ethyl)-1-methyl-2,3,4,5-tetrahydro-1H-benzo[e][1,4]diazepin-7-ylamino]-pyrimidin-4-ylamino}-N-methyl-benzamide] | < 100 | < 100 |
| CCN1CCc2ccc(Nc3ncc(Cl)c(N[C@@H]4CCCC[C@H]4NS(C)(=O)=O)n3)cc2CC1 [Example 441, N-{(1R,2R)-2-[5-Chloro-2-(3-ethyl-2,3,4,5-tetrahydro-1H-benzo[d]azepin-7-ylamino)-pyrimidin-4-ylamino]-cyclohexyl}methanesulfonamide] | 100 to 1000 | < 100 |
| CCN1CCc2ccc(Nc3ncc(Cl)c(Nc4ccc(N5CCOCC5)cc4OC)n3)cc2CC1 [Example 442, 5-Chloro-N*2*-(3-ethyl-2,3,4,5-tetrahydro-1H-benzo[d]azepin-7-yl)-N*4*-(2-methoxy-4-morpholin-4-yl-phenyl)-pyrimidine-2,4-diamine] | 1000 to 10000 | < 100 |
| CCN1CCc2ccc(Nc3ncc(Cl)c(Nc4ccc(N5CCOCC5)cc4)n3)cc2CC1 [Example 443, 5-Chloro-N*2*-(3-ethyl-2,3,4,5-tetrahydro-1H-benzo[d]azepin-7-yl)-N*4*-(4-morpholin-4-yl-phenyl)-pyrimidine-2,4-diamine] | 1000 to 10000 | < 100 |
| CCN1CCc2ccc(Nc3ncc(Cl)c(Nc4cccc(N5CCOCC5)c4)n3)cc2CC1 [Example 444, 5-Chloro-N*2*-(3-ethyl-2,3,4,5-tetrahydro-1H-benzo[d]azepin-7-yl)-N*4*-(3-morpholin-4-yl-phenyl)-pyrimidine-2,4-diamine] | 1000 to 10000 | < 100 |
| CCN1CCc2ccc(Nc3ncc(Cl)c(N[C@@H]4CCCC[C@H]4NC(C)=O)n3)cc2CC1 [Example 445, N-{(1R,2R)-2-[5-Chloro-2-(3-ethyl-2,3,4,5-tetrahydro-1H-benzo[d]azepin-7-ylamino)-pyrimidin-4-ylamino]-cyclohexyl}-acetamide] | < 100 | < 100 |
| CCN1CCc2ccc(Nc3ncc(Cl)c(N[C@@H]4CCCC[C@H]4NC(=O)C(F)(F)F)n3)cc2CC1 [Example 446, N-{(1R,2R)-2-[5-Chloro-2-(3-ethyl-2,3,4,5-tetrahydro-1H-benzo[d]azepin-7-ylamino)-pyrimidin-4-ylamino]-cyclohexyl}-2,2,2-trifluoro-acetamide] | 100 to 1000 | < 100 |
| CCN1CCc2ccc(Nc3ncc(Cl)c(N[C@@H]4CCCC[C@H]4NC(=O)N(C)C)n3)cc2CC1 [Example 447, 3-{(1R,2R)-2-[5-Chloro-2-(3-ethyl-2,3,4,5-tetrahydro-1H-benzo[d]azepin-7-ylamino)-pyrimidin-4-ylamino]-cyclohexyl}-1,1-dimethyl-urea] | 100 to 1000 | 100 to 1000 |
| CNC(=O)c1ccccc1Nc1nc(Nc2ccc3c(c2)CCN(C[C@@H](O)C(F)(F)F)CC3)ncc1Cl [Example 448, 2-{5-Chloro-2-[3-((R)-3,3,3-trifluoro-2-hydroxy-propyl)-2,3,4,5-tetrahydro-1H-benzo[d]azepin-7-ylamino]-pyrimidin-4-ylamino}-N-methyl-benzamide] | < 100 | < 100 |
